Earlier results, collected in publication PMC5143208 (American journal of transplantation : official journal of …, 2016).

System: CCR2
Settings: in vitro

d(LGTFLKC) [ECL1i]
binding to CCR2: selectively bind CCR2 in a non-competitive way
